Experiments:
Assay type in all cases: in vivo
[1] = tested on: sedge, umbrella (small-flower umbrella sedge, Cyperus difformis); test: Test C flooded paddy test: sedge, umbrella; details: scale 0 to 100 (0 no effect, 100 complete control)
Summary of the method: (§1)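 Plants were grown to the 2-leaf stage, pots flooded to 3 cm above soil, and test compounds applied directly to the paddy water, with that depth held throughout. After 13 to 15 days in a greenhouse, injury was visually rated against controls on a 0 (no effect) to 100 (complete control) scale.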

[2] = tested on: crabgrass, large (large crabgrass, Digitaria sanguinalis); test: Test A pre-/postemergence: crabgrass, large; details: for Crabgrass, Large plant response rating: Postemergence; for Plant response rating, Crabgrass, Large: Preemergence
Summary of the method: (§2)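 Whole-plant greenhouse assay in loam/sand. Preemergence directed soil spray plus simultaneous postemergence spray (one- to two-leaf stage, 2–10 cm). Rated visually ~10 days later, 0 = no effect, 100 = complete control.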

[3] = tested on: wheat (Triticum aestivum); test: Test A pre-/postemergence: wheat; details: for Wheat plant response rating: Postemergence; for Plant response rating, Wheat: Preemergence
Summary of the method: as §2

[4] = tested on: ducksalad (Heteranthera limosa); test: Test C flooded paddy test: ducksalad; details: scale 0 to 100 (0 no effect, 100 complete control)
Summary of the method: as §1

[5] = tested on: morningglory (Ipomoea spp.); test: Test A pre-/postemergence: morningglory; details: for Morningglory plant response rating: Postemergence; for Plant response rating, Morningglory: Preemergence
Summary of the method: as §2

corn (Zea mays) = test: Test A pre-/postemergence: corn; details: for Corn plant response rating: Postemergence; for Plant response rating, Corn: Preemergence
Summary of the method: as §2

[6] = tested on: barnyardgrass (Echinochloa crus-galli); test: Test C flooded paddy test: barnyardgrass; details: scale 0 to 100 (0 no effect, 100 complete control)
Summary of the method: as §1

rice (Oryza sativa) = test: Test C flooded paddy test: rice; details: scale 0 to 100 (0 no effect, 100 complete control)
Summary of the method: as §1

[7] = tested on: barnyardgrass (Echinochloa crus-galli); test: Test A pre-/postemergence: barnyardgrass; details: for Barnyardgrass plant response rating: Postemergence; for Plant response rating, Barnyardgrass: Preemergence
Summary of the method: as §2

[8] = tested on: pigweed (Amaranthus retroflexus); test: Test A pre-/postemergence: pigweed; details: for Pigweed plant response rating: Postemergence; for Plant response rating, Pigweed: Preemergence
Summary of the method: as §2

[9] = tested on: velvetleaf (Abutilon theophrasti); test: Test A pre-/postemergence: velvetleaf; details: for Velvetleaf plant response rating: Postemergence; for Plant response rating, Velvetleaf: Preemergence
Summary of the method: as §2

[10] = tested on: foxtail, giant (giant foxtail, Setaria faberii); test: Test A pre-/postemergence: foxtail, giant; details: for Foxtail, Giant plant response rating: Postemergence; for Plant response rating, Foxtail, Giant: Preemergence
Summary of the method: as §2

[11] = Flood (flooded paddy test), 62 g ai/ha, visual rating after 13 to 15 days
[12] = Flood (flooded paddy test), 125 g ai/ha, visual rating after 13 to 15 days
[13] = Flood (flooded paddy test), 250 g ai/ha, visual rating after 13 to 15 days
[14] = 125 g ai/ha, 0 to 100 scale, 0 is no effect, 100 is complete control
[15] = 500 g ai/ha, visual rating on 0 to 100 scale (0 no effect, 100 complete control), approximately ten days
[16] = 125 g ai/ha, 0 to 100 scale (0 no effect, 100 complete control)
[17] = 500 g ai/ha, 0 to 100 scale, 0 is no effect, 100 is complete control

Cc1nn(-c2ccccc2[N+](=O)[O-])nc1C(=O)c1cccc(C(F)(F)F)c1 [Compound 63]
Plant response rating, Sedge, Umbrella [1, 11]: 0 | Plant response rating, Sedge, Umbrella [1, 12]: 0 | Plant response rating, Sedge, Umbrella [1, 13]: 0 | Plant response rating, Sedge, Umbrella ([1]; Flood, 31 g ai/ha): 0 | Crabgrass, Large plant response rating [2, 14]: 0 | Crabgrass, Large plant response rating [2, 15]: 0 | Plant response rating, Crabgrass, Large [2, 16]: 0 | Plant response rating, Crabgrass, Large [2, 17]: 0 | Wheat plant response rating [3, 14]: 0 | Wheat plant response rating [3, 15]: 0 | Plant response rating, Wheat [3, 16]: 0 | Plant response rating, Wheat [3, 17]: 0 | Plant response rating, Ducksalad [4, 11]: 0 | Plant response rating, Ducksalad [4, 12]: 0 | Plant response rating, Ducksalad [4, 13]: 0 | Plant response rating, Ducksalad ([4]; Flood, 31 g ai/ha): 0 | Morningglory plant response rating [5, 14]: 0 | Morningglory plant response rating [5, 15]: 0 | Plant response rating, Morningglory [5, 16]: 0 | Plant response rating, Morningglory [5, 17]: 0 | Corn plant response rating (corn (Zea mays); [14]): 0 | Corn plant response rating (corn (Zea mays); [15]): 0 | Plant response rating, Corn (corn (Zea mays); [16]): 0 | Plant response rating, Corn (corn (Zea mays); [17]): 0 | Plant response rating, Barnyardgrass [6, 11]: 0 | Plant response rating, Barnyardgrass [6, 12]: 0 | Plant response rating, Barnyardgrass [6, 13]: 0 | Plant response rating, Barnyardgrass ([6]; Flood, 31 g ai/ha): 0 | Plant response rating, Rice (rice (Oryza sativa); [11]): 0 | Plant response rating, Rice (rice (Oryza sativa); [12]): 0 | Plant response rating, Rice (rice (Oryza sativa); [13]): 0 | Plant response rating, Rice (rice (Oryza sativa); Flood, 31 g ai/ha): 0 | Barnyardgrass plant response rating [7, 14]: 0 | Barnyardgrass plant response rating [7, 15]: 0 | Plant response rating, Barnyardgrass [7, 16]: 0 | Plant response rating, Barnyardgrass [7, 17]: 0 | Pigweed plant response rating [8, 14]: 0 | Pigweed plant response rating [8, 15]: 10 | Plant response rating, Pigweed [8, 16]: 0 | Plant response rating, Pigweed [8, 17]: 0 | Velvetleaf plant response rating [9, 14]: 0 | Velvetleaf plant response rating [9, 15]: 0 | Plant response rating, Velvetleaf [9, 16]: 0 | Plant response rating, Velvetleaf [9, 17]: 0 | Foxtail, Giant plant response rating [10, 14]: 0 | Foxtail, Giant plant response rating [10, 15]: 0 | Plant response rating, Foxtail, Giant [10, 16]: 0 | Plant response rating, Foxtail, Giant [10, 17]: 0

Cc1nn(-c2ccc(C(F)(F)F)cc2)nc1Oc1ccc(C(F)(F)F)cc1 [Compound 83]
Plant response rating, Sedge, Umbrella [1, 12]: 20 | Plant response rating, Sedge, Umbrella [1, 13]: 30 | Plant response rating, Sedge, Umbrella ([1]; Flood, 31 g ai/ha): 10 | Plant response rating, Sedge, Umbrella ([1]; Flood, 62 g ai/ha): 20 | Crabgrass, Large plant response rating [2, 14]: 0 | Crabgrass, Large plant response rating [2, 15]: 0 | Plant response rating, Crabgrass, Large [2, 16]: 0 | Plant response rating, Crabgrass, Large [2, 17]: 0 | Wheat plant response rating [3, 14]: 0 | Wheat plant response rating [3, 15]: 0 | Plant response rating, Wheat [3, 16]: 0 | Plant response rating, Wheat [3, 17]: 0 | Plant response rating, Ducksalad [4, 12]: 20 | Plant response rating, Ducksalad [4, 13]: 30 | Plant response rating, Ducksalad ([4]; Flood, 31 g ai/ha): 0 | Plant response rating, Ducksalad ([4]; Flood, 62 g ai/ha): 20 | Morningglory plant response rating [5, 14]: 0 | Morningglory plant response rating [5, 15]: 0 | Plant response rating, Morningglory [5, 16]: 0 | Plant response rating, Morningglory [5, 17]: 0 | Corn plant response rating (corn (Zea mays); [14]): 0 | Corn plant response rating (corn (Zea mays); [15]): 0 | Plant response rating, Corn (corn (Zea mays); [16]): 0 | Plant response rating, Corn (corn (Zea mays); [17]): 0 | Plant response rating, Barnyardgrass [6, 12]: 0 | Plant response rating, Barnyardgrass [6, 13]: 0 | Plant response rating, Barnyardgrass ([6]; Flood, 31 g ai/ha): 0 | Plant response rating, Barnyardgrass ([6]; Flood, 62 g ai/ha): 0 | Plant response rating, Rice (rice (Oryza sativa); [12]): 20 | Plant response rating, Rice (rice (Oryza sativa); [13]): 25 | Plant response rating, Rice (rice (Oryza sativa); Flood, 31 g ai/ha): 10 | Plant response rating, Rice (rice (Oryza sativa); Flood, 62 g ai/ha): 20 | Barnyardgrass plant response rating [7, 14]: 0 | Barnyardgrass plant response rating [7, 15]: 0 | Plant response rating, Barnyardgrass [7, 16]: 0 | Plant response rating, Barnyardgrass [7, 17]: 0 | Pigweed plant response rating [8, 14]: 0 | Pigweed plant response rating [8, 15]: 0 | Plant response rating, Pigweed [8, 16]: 0 | Plant response rating, Pigweed [8, 17]: 0 | Velvetleaf plant response rating [9, 14]: 0 | Velvetleaf plant response rating [9, 15]: 0 | Plant response rating, Velvetleaf [9, 16]: 0 | Plant response rating, Velvetleaf [9, 17]: 0 | Foxtail, Giant plant response rating [10, 14]: 0 | Foxtail, Giant plant response rating [10, 15]: 0 | Plant response rating, Foxtail, Giant [10, 16]: 0 | Plant response rating, Foxtail, Giant [10, 17]: 0
